Values belong to the compound of their own block, whether it stands above or below them. Active and inactive are the calls of the source. No cut-off for these calls is given here.
Columns and labels:
[1] = molecular target: T1, DNMT3A2/3L complex (Homo sapiens) (UniProt Q9Y6K1+Q9UJW3); assay: Inhibition of wild type full length recombinant human DNMT3A expressed in NiCo21(DE3) competent Escherichia coli cells to DNMT3L (unknown origin) protein-protein interaction
[2] = molecular target: T1, DNMT3A2/3L complex (Homo sapiens); assay: […] of wild type full length recombinant human DNMT3A expressed in NiCo21(DE3) competent Escherichia coli cells to DNMT3L protein-protein interaction
[3] = molecular target: DNA (cytosine-5)-methyltransferase 3A (Homo sapiens) (UniProt Q9Y6K1); assay: Inhibition of H3 peptide activated human full length DNMT3A expressed in NiCo21(DE3) competent Escherichia coli cells at 60 uM
DNA (cytosine-5)-methyltransferase 3A (Homo sapiens), sequence (Q9Y6K1 whole entry, looked up): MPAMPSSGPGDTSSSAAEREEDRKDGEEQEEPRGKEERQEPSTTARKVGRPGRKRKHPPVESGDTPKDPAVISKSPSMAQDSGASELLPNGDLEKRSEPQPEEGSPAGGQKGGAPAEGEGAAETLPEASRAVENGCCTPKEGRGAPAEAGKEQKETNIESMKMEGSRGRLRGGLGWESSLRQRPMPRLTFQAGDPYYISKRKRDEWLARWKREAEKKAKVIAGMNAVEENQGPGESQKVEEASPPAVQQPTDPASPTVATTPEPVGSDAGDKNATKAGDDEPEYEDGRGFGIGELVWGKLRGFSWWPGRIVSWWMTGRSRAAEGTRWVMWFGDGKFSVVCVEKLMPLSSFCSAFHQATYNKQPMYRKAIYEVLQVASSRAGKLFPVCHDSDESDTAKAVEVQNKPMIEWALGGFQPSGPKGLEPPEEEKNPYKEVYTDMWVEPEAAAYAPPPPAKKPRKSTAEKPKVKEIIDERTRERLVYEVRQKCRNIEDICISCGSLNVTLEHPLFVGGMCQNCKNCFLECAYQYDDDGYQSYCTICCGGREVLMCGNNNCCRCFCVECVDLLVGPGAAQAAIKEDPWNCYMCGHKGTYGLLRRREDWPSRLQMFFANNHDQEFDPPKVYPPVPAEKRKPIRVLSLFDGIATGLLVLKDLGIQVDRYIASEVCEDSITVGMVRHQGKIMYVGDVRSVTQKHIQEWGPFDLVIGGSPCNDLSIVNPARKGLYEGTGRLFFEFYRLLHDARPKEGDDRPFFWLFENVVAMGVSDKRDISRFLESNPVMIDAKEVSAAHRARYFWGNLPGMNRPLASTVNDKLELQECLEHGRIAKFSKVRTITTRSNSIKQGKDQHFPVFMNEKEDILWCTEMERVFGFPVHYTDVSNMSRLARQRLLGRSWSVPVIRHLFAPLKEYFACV

[4] = molecular target: Lysine-specific demethylase 5A (Homo sapiens) (UniProt P29375); assay: Inhibition of KDM5A (1 to 797) activity using 21-mer biotinylated H3K4me3 peptide measured after 40 mins by TR-FRET assay
Lysine-specific demethylase 5A (Homo sapiens), sequence (P29375 whole entry): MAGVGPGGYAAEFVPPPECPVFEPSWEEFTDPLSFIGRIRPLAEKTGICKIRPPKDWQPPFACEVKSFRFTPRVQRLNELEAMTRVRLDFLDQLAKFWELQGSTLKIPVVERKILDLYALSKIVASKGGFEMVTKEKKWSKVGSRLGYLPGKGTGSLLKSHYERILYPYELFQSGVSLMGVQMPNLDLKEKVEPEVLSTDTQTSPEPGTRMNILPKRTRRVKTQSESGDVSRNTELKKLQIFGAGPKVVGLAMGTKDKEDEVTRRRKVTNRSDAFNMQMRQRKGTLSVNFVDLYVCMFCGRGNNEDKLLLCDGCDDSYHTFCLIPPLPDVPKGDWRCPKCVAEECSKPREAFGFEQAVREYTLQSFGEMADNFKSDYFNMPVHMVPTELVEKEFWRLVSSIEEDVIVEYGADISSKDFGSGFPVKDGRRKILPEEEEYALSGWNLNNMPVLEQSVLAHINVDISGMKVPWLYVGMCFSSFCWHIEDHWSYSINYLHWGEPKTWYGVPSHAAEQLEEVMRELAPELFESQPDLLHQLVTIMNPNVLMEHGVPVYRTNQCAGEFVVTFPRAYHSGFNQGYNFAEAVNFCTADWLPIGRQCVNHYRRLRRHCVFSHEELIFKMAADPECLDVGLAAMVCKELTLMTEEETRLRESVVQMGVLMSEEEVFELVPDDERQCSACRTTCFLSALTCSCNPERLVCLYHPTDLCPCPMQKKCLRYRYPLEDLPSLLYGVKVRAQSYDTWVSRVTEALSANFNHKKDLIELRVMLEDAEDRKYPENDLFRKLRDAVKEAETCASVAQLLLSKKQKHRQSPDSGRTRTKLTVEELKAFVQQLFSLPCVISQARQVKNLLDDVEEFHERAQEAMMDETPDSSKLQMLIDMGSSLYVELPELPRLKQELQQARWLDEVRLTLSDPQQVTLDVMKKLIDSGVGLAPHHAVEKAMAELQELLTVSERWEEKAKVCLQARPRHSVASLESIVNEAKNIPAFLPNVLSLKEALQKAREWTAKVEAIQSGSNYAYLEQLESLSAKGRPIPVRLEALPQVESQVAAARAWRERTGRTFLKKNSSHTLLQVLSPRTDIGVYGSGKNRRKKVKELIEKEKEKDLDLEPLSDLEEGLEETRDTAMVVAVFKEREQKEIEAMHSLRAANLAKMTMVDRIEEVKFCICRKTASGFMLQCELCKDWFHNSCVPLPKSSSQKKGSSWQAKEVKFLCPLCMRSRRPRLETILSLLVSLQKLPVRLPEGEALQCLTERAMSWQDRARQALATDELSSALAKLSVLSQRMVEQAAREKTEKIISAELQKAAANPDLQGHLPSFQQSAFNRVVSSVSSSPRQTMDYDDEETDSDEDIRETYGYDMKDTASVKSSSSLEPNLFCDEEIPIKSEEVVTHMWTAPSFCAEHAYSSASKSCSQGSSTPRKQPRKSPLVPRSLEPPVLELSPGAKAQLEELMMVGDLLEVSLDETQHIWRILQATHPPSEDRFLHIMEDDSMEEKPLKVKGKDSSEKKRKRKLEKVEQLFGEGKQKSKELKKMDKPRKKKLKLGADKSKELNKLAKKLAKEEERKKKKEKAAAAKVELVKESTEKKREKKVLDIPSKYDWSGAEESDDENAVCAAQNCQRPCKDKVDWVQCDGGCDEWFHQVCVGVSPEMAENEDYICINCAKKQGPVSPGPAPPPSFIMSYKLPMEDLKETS

[5] = molecular target: DNA (cytosine-5)-methyltransferase 3A (Homo sapiens) (UniProt Q9Y6K1); assay: Inhibition of wild type full length recombinant human DNMT3A expressed in NiCo21(DE3) competent Escherichia coli cells assessed as decrease the fluorescence anisotrophy of DNA bound protein using FAM/TGGATATCTAGGGGCGCTATGATAT as substrate incubated for 5 mins by microplate reader based fluorescence anisotropy assay
Homo sapiens [6] = species on record: Homo sapiens; assay: Inhibition of wild type full length recombinant human DNMT3A expressed in NiCo21(DE3) competent Escherichia coli cells to human TDG protein protein interaction using FAM/TGGATATCTAGGGGCGCTATGATAT as substrate incubated for 5 mins by microplate reader based fluorescence anisotropy assay; settings: DDE = dose-dependent effect
Homo sapiens [7] = species on record: Homo sapiens; assay: Inhibition of wild type full length recombinant human DNMT3A expressed in NiCo21(DE3) competent Escherichia coli cells to human p53 protein-protein interaction using FAM/TGGATATCTAGGGGCGCTATGATAT as substrate incubated for 5 mins by microplate reader based fluorescence anisotropy assay; settings: DDE = dose-dependent effect
Homo sapiens [8] = species on record: Homo sapiens; assay: Inhibition of full length recombinant human DNMT3A R882H mutant expressed in NiCo21(DE3) competent Escherichia coli cells to DNMT3L (unknown origin) protein-protein interaction
Homo sapiens [9] = species on record: Homo sapiens; assay: Inhibition of full length recombinant human DNMT3A R882H mutant expressed in NiCo21(DE3) competent Escherichia coli cells
Homo sapiens [10] = species on record: Homo sapiens; assay: Inhibition of full length recombinant human DNMT3A R882H mutant expressed in NiCo21(DE3) competent Escherichia coli cells to DNMT3L (unknown origin) using FAM-DNA as substrate
Homo sapiens [11] = species on record: Homo sapiens; assay: Inhibition of full length recombinant human DNMT3A R882H mutant expressed in NiCo21(DE3) competent Escherichia coli cells to human p53
Homo sapiens [12] = species on record: Homo sapiens; assay: Inhibition of full length recombinant human DNMT3A R882H mutant expressed in NiCo21(DE3) competent Escherichia coli cells to human TDG
[13] = molecular target: T1, DNMT3A2/3L complex (Homo sapiens); assay: Inhibition of DNMT3L-mediated wild type full length recombinant human DNMT3A homo tetramer expressed in NiCo21(DE3) competent Escherichia coli cells to DNMT3L protein-protein interaction assessed as DNA methylation using poly dl-dC as substrate incubated for 1 hr
Homo sapiens [14] = species on record: Homo sapiens; assay: Inhibition of full length recombinant human DNMT3A R729 mutant tetramer expressed in NiCo21(DE3) competent Escherichia coli cells
Homo sapiens [15] = species on record: Homo sapiens; assay: Inhibition of full length recombinant human DNMT3A E733 mutant tetramer expressed in NiCo21(DE3) competent Escherichia coli cells
Homo sapiens [16] = species on record: Homo sapiens; assay: Inhibition of full length recombinant human DNMT3A R736 mutant tetramer expressed in NiCo21(DE3) competent Escherichia coli cells
Homo sapiens [17] = species on record: Homo sapiens; assay: Inhibition of full length recombinant human DNMT3A R729A mutant tetramer expressed in NiCo21(DE3) competent Escherichia coli cells to DNMT3L (unknown origin) protein-protein interaction preincubated for 1 hr
Homo sapiens [18] = species on record: Homo sapiens; assay: Inhibition of full length recombinant human DNMT3A E733A mutant tetramer expressed in NiCo21(DE3) competent Escherichia coli cells to DNMT3L (unknown origin) protein-protein interaction preincubated for 1 hr
Homo sapiens [19] = species on record: Homo sapiens; assay: Inhibition of full length recombinant human DNMT3A R736A mutant tetramer expressed in NiCo21(DE3) competent Escherichia coli cells to DNMT3L (unknown origin) protein-protein interaction preincubated for 1 hr
Homo sapiens [20] = species on record: Homo sapiens; assay: Inhibition of full length recombinant human DNMT3A R771A mutant tetramer expressed in NiCo21(DE3) competent Escherichia coli cells to DNMT3L (unknown origin) protein-protein interaction preincubated for 1 hr
Homo sapiens [21] = species on record: Homo sapiens; assay: Inhibition of full length recombinant human DNMT3A R771A mutant expressed in NiCo21(DE3) competent Escherichia coli cells to DNMT3L (unknown origin) protein-protein interaction using FAM-DNA as substrate by fluorescence anisotropy assay
HL-60 [22] = assay: Induction of apoptosis in human HL-60 cells measured after 72 hrs by annexinVstaining based flow cytometry; type: functional, cell-based; settings: dose 7-12 µM, DDE = dose-dependent effect
K562 [23] = assay: Induction of apoptosis in human K562 cells measured after 72 hrs by annexinV staining based flow cytometry; type: functional, cell-based; settings: dose 7-12 µM, DDE = dose-dependent effect
MV4-11 [24] = assay: Induction of apoptosis in human MV4-11 cells measured after 72 hrs by annexinVstaining based flow cytometry; type: functional, cell-based; settings: dose 7-12 µM, DDE = dose-dependent effect
OCI-AML-3 [25] = assay: Induction of apoptosis in human OCI-AML-3 cells measured after 72 hrs by annexinV staining based flow cytometry; type: functional, cell-based; settings: dose 7-12 µM, DDE = dose-dependent effect
Kasumi 1 [26] = assay: Induction of apoptosis in human Kasumi 1 cells measured after 72 hrs by annexinV staining based flow cytometry; type: functional, cell-based; settings: dose 7-12 µM, DDE = dose-dependent effect
THP-1 [27] = assay: Induction of apoptosis in human THP-1 cells measured after 72 hrs by annexinV staining based flow cytometry; type: functional, cell-based; settings: dose 7-12 µM, DDE = dose-dependent effect
MOLM-13 [28] = assay: Induction of apoptosis in human MOLM-13 cells measured after 72 hrs by annexinV staining based flow cytometry; type: functional, cell-based; settings: dose 7-12 µM, DDE = dose-dependent effect
MV4-11 [29] = assay: Induction of myeloid differentiation in human MV4-11 cells assessed as increase in CD11b level measured after 72 hrs by propidium iodide staining based flow cytometry; type: functional, cell-based; settings: dose 5-10 µM, DDE = dose-dependent effect
MOLM-13 [30] = assay: Induction of myeloid differentiation in human MOLM-13 cells assessed as increase in CD11b level measured after 72 hrs by propidium iodide staining based flow cytometry; type: functional, cell-based; settings: dose 5-10 µM, DDE = dose-dependent effect
THP-1 [31] = assay: Induction of myeloid differentiation in human THP-1 cells assessed as increase in CD11b level measured after 72 hrs by propidium iodide staining based flow cytometry; type: functional, cell-based; settings: dose 5-10 µM, DDE = dose-dependent effect
OCI-AML-3 [32] = assay: Induction of DNA methylation in human OCI-AML-3 cells at 5 uM by ELISA; type: functional, cell-based; settings: time 3.0 day, TDE = time-dependent effect
K562 [33] = assay: Induction of DNA methylation in human K562 cells at 5 uM by ELISA; type: functional, cell-based; settings: time 3.0 day, TDE = time-dependent effect
OCI-AML-3 [34] = assay: Induction of myeloid differentiation in human OCI-AML-3 cells assessed as increase in CD11b level measured after 72 hrs by propidium iodide staining based flow cytometry; type: functional, cell-based; settings: dose 5-10 µM, DDE = dose-dependent effect
Kasumi 1 [35] = assay: Induction of myeloid differentiation in human Kasumi 1 cells assessed as increase in CD11b level measured after 72 hrs by propidium iodide staining based flow cytometry; type: functional, cell-based; settings: DDE = dose-dependent effect
HL-60 [36] = assay: Induction of myeloid differentiation in human HL-60 cells assessed as increase in CD11b level measured after 72 hrs by propidium iodide staining based flow cytometry; type: functional, cell-based; settings: DDE = dose-dependent effect
K562 [37] = assay: Induction of myeloid differentiation in human K562 cells assessed as increase in CD11b level measured after 72 hrs by propidium iodide staining based flow cytometry; type: functional, cell-based; settings: DDE = dose-dependent effect
HL-60 [38] = assay: Induction of DNA methylation in human HL-60 cells at 5 uM by ELISA; type: functional, cell-based; settings: time 3.0 day, TDE = time-dependent effect
[39] = molecular target: T1, DNMT3A2/3L complex (Homo sapiens); assay: Inhibition of DNMT3L-mediated wild type full length recombinant human DNMT3A hetero tetramer expressed in NiCo21(DE3) competent Escherichia coli cells to DNMT3L protein-protein interaction assessed as DNA methylation using poly dl-dC as substrate incubated for 1 hr

T1 sequence (Q9UJW3 whole entry, looked up): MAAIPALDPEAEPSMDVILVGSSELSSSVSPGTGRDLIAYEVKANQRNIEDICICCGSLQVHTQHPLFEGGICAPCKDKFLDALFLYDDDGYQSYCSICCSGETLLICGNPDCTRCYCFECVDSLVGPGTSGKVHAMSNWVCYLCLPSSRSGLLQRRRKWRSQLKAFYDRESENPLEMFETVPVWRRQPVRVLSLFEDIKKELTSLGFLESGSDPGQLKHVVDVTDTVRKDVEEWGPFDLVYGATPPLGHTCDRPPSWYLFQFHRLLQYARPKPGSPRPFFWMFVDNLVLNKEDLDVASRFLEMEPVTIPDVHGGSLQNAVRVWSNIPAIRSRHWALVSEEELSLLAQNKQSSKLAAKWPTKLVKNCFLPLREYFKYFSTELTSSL
T1 sequence (Q9Y6K1 whole entry, looked up): as the sequence (Q9Y6K1 whole entry, looked up) above

inhibition [1]: Active | Activity [2]: Active | inhibition [3]: Active | inhibition [4]: Active | inhibition [5]: Active
Structure (SMILES): COc1ccc(C2=NN(C3CCCCCC3)C(=O)C2(C)C)cc1OCCCCOc1ccc(-c2nn[nH]n2)cc1
inhibition (Homo sapiens [6]): Dde | inhibition (Homo sapiens [7]): Dde | inhibition (Homo sapiens [8]): Active | inhibition (Homo sapiens [9]): Active | inhibition (Homo sapiens [10]): Active | inhibition (Homo sapiens [11]): Active | inhibition (Homo sapiens [12]): Active

inhibition [1]: Active | inhibition [13]: Active | Activity [2]: Active | inhibition [3]: Active | inhibition [4]: Active | inhibition [5]: Active | inhibition [39]: Active
Structure (SMILES): COc1ccc(C2=NN(C3CCCCCC3)C(=O)[C@@H]3CC=CC[C@H]23)cc1OCCCCOc1ccc(-c2nnn[nH]2)cc1
inhibition (Homo sapiens [6]): Dde | inhibition (Homo sapiens [7]): Dde | inhibition (Homo sapiens [14]): Active | inhibition (Homo sapiens [15]): Active | inhibition (Homo sapiens [16]): Active | inhibition (Homo sapiens [17]): Active | inhibition (Homo sapiens [18]): Active | inhibition (Homo sapiens [19]): Active | inhibition (Homo sapiens [20]): Active | inhibition (Homo sapiens [21]): Active | inhibition (Homo sapiens [8]): Active | inhibition (Homo sapiens [9]): Active | inhibition (Homo sapiens [10]): Active | inhibition (Homo sapiens [11]): Active | inhibition (Homo sapiens [12]): Active | Activity (HL-60 [22]): Dde | Activity (K562 [23]): Dde | Activity (MV4-11 [24]): Dde | Activity (OCI-AML-3 [25]): Dde | Activity (Kasumi 1 [26]): Dde | Activity (THP-1 [27]): Dde | Activity (MOLM-13 [28]): Dde | Activity (MV4-11 [29]): Dde | Activity (MOLM-13 [30]): Dde | Activity (THP-1 [31]): Dde | Activity (OCI-AML-3 [32]): Tde | Activity (K562 [33]): Tde | Activity (OCI-AML-3 [34]): Dde | Activity (Kasumi 1 [35]): Dde | Activity (HL-60 [36]): Dde | Activity (K562 [37]): Dde | Activity (HL-60 [38]): Tde
